# Laboratory results taken from US9302999B2, “Substituted triazoles as herbicides” (E. I. DU PONT DE NEMOURS AND COMPANY, priority 2012, dated 2016).
# Assays:
# Assay type in all cases: in vivo
# [1] = system: wheat, winter (winter wheat, Triticum aestivum); assay: Test D pre-/postemergence: wheat, winter; settings: for Plant response rating: Wheat, Winter: Postemergence; for Plant response rating, Wheat, Winter: Preemergence
# Source text: Seeds of plant species selected from bluegrass (annual bluegrass, Poa annua), blackgrass (Alopecurus myosuroides), canarygrass (Phalaris minor), chickweed (common chickweed, Stellaria media), galium (catchweed bedstraw, Galium aparine), bromegrass, downy (downy bromegrass, Bromus tectorum), field poppy (Papaver rhoeas), field violet (Viola arvensis), foxtail, green (green foxtail, Setaria viridis), deadnettle (henbit deadnettle, Lamium amplexicaule), ryegrass, Italian (Italian ryegrass, Lolium multiflorum), kochia (Kochia scoparia), lambsquarters (Chenopodium album), oilseed rape (Brassica napus), pigweed (Amaranthus retroflexus), Russian thistle (Salsola iberica), chamomile (scentless chamomile, Matricaria inodora), speedwell (bird's-eye speedwell, Veronica persica), barley, spring (spring barley, Hordeum vulgare), wheat, spring (spring wheat, Triticum aestivum), buckwheat, wild (wild buckwheat, Polygonum convolvulus), mustard, wild (wild mustard, Sinapis arvensis), oat, wild (wild oat, Avena fatua), radish, wild (wild radish, Raphanus raphanistrum), windgrass (Apera spica-venti), barley, winter (winter barley, Hordeum vulgare), and wheat, winter (winter wheat, Triticum aestivum) were planted into a silt loam soil and treated preemergence with test chemicals formulated in a non-phytotoxic solvent mixture which included a surfactant. At the same time, these same crop and weed species were planted in pots containing the planting medium comprising spaghnum peat moss, vermiculite, wetting agent and starter nutrients and treated with postemergence applications of the test chemicals formulated in the same manner. Plants ranged in height from 2 to 18 cm (1- to 4-leaf stage).
# Treated plants and controls were maintained in a controlled growth environment for 14 to 21 days after which time all species were compared to controls and visually evaluated. Plant response ratings, summarized in Table D, are based on a scale of 0 to 100 where 0 is no effect and 100 is complete control. A dash (-) response means no test result.
# [2] = system: pigweed (Amaranthus retroflexus); assay: Test D pre-/postemergence: pigweed; settings: for Plant response rating: Pigweed: Postemergence; for Plant response rating, Pigweed: Preemergence
# Summary of the method: (§1)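 Species were sown in silt loam and sprayed preemergence, or grown in peat/vermiculite medium and sprayed postemergence at the 1- to 4-leaf stage (2–18 cm), with compounds in a surfactant-containing solvent. Injury was visually rated against untreated controls after 14–21 days, on a 0 (no effect) to 100 (complete control) scale.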
# [3] = system: bromegrass, downy (downy bromegrass, Bromus tectorum); assay: Test D pre-/postemergence: bromegrass, downy; settings: for Plant response rating: Bromegrass, Downy: Postemergence; for Plant response rating, Bromegrass, Downy: Preemergence
# Summary of the method: as §1
# [4] = system: buckwheat, wild (wild buckwheat, Polygonum convolvulus); assay: Test D pre-/postemergence: buckwheat, wild; settings: for Plant response rating: Buckwheat, Wild: Postemergence; for Plant response rating, Buckwheat, Wild: Preemergence
# Summary of the method: as §1
# [5] = 31 g ai/ha, scale 0 to 100 (0 no effect, 100 complete control)
# [6] = 62 g ai/ha, scale 0 to 100 (0 no effect, 100 complete control)
# [7] = 125 g ai/ha, scale 0 to 100, 0 no effect, 100 complete control
# [8] = 250 g ai/ha, scale 0 to 100 (0 no effect, 100 complete control)
# [9] = 31 g ai/ha, scale 0 to 100, 0 no effect, 100 complete control
compound,measurement,setting,value
"FC(F)(F)COc1nn(-c2ccc(C(F)(F)F)cc2)nc1Cc1ccnc(C(F)(F)F)c1 [Compound 14, 4-[[5-(2,2,2-trifluoroethoxy)-2-[4-(trifluoromethyl)phenyl]-2H-1,2,3-triazol-4-yl]methyl]-2-(trifluoromethyl)pyridine]","Plant response rating: Wheat, Winter",[1]; [5],5
same,"Plant response rating: Wheat, Winter",[1]; [6],5
same,"Plant response rating: Wheat, Winter",[1]; [7],15
same,"Plant response rating: Wheat, Winter",[1]; [8],25
same,"Plant response rating, Wheat, Winter",[1]; [9],0
same,"Plant response rating, Wheat, Winter","[1]; 62 g ai/ha, scale 0 to 100",0
same,"Plant response rating, Wheat, Winter","[1]; 125 g ai/ha, scale 0 to 100",10
same,"Plant response rating, Wheat, Winter","[1]; 250 g ai/ha, scale 0 to 100",20
same,Plant response rating: Pigweed,[2]; [5],100
same,Plant response rating: Pigweed,[2]; [6],100
same,Plant response rating: Pigweed,[2]; [7],100
same,Plant response rating: Pigweed,[2]; [8],100
same,"Plant response rating, Pigweed",[2]; [9],20
same,"Plant response rating, Pigweed","[2]; 62 g ai/ha, scale 0 to 100",70
same,"Plant response rating, Pigweed","[2]; 125 g ai/ha, scale 0 to 100",90
same,"Plant response rating, Pigweed","[2]; 250 g ai/ha, scale 0 to 100",100
same,"Plant response rating: Bromegrass, Downy",[3]; [5],15
same,"Plant response rating: Bromegrass, Downy",[3]; [6],20
same,"Plant response rating: Bromegrass, Downy",[3]; [7],30
same,"Plant response rating: Bromegrass, Downy",[3]; [8],40
same,"Plant response rating, Bromegrass, Downy",[3]; [9],0
same,"Plant response rating, Bromegrass, Downy","[3]; 62 g ai/ha, scale 0 to 100",10
same,"Plant response rating, Bromegrass, Downy","[3]; 125 g ai/ha, scale 0 to 100",20
same,"Plant response rating, Bromegrass, Downy","[3]; 250 g ai/ha, scale 0 to 100",30
same,"Plant response rating: Buckwheat, Wild",[4]; [5],0
same,"Plant response rating: Buckwheat, Wild",[4]; [6],40
same,"Plant response rating: Buckwheat, Wild",[4]; [7],60
same,"Plant response rating: Buckwheat, Wild",[4]; [8],100
same,"Plant response rating, Buckwheat, Wild",[4]; [9],0
same,"Plant response rating, Buckwheat, Wild","[4]; 62 g ai/ha, scale 0 to 100",30
same,"Plant response rating, Buckwheat, Wild","[4]; 125 g ai/ha, scale 0 to 100",35
same,"Plant response rating, Buckwheat, Wild","[4]; 250 g ai/ha, scale 0 to 100",40
